In patent US20180008587A1, “THIOHYDANTOIN ANDROGEN RECEPTOR ANTAGONISTS FOR THE TREATMENT OF CANCER” (Jaressen Pharmaceutica NV, priority 2016, published 2018):
Positions count from the first letter of the chain named. Where two headings read alike, the source gives them in different places.

Columns and labels:
Type in all cases: cell-based
[1] = target: T1, wild-type Androgen Receptor (AR-wt) (Homo sapiens, UniProt P10275); assay: LNCaP-AR-wt ANT reporter assay (ARE firefly luciferase, antagonist mode); details: for IC50: antagonist mode, 400 pM R-1881 challenge, −Log10(IC50 [Molar]), read-out: LNCaP-AR-wt ANT pIC50 (converted); for Emax: read-out: LNCaP-AR-wt ANT MAX % Inh
T1 construct: expressed in transfected cells; host or cells: LNCaP (LNCaP AR (cs))
T1 sequence (P10275 1-920): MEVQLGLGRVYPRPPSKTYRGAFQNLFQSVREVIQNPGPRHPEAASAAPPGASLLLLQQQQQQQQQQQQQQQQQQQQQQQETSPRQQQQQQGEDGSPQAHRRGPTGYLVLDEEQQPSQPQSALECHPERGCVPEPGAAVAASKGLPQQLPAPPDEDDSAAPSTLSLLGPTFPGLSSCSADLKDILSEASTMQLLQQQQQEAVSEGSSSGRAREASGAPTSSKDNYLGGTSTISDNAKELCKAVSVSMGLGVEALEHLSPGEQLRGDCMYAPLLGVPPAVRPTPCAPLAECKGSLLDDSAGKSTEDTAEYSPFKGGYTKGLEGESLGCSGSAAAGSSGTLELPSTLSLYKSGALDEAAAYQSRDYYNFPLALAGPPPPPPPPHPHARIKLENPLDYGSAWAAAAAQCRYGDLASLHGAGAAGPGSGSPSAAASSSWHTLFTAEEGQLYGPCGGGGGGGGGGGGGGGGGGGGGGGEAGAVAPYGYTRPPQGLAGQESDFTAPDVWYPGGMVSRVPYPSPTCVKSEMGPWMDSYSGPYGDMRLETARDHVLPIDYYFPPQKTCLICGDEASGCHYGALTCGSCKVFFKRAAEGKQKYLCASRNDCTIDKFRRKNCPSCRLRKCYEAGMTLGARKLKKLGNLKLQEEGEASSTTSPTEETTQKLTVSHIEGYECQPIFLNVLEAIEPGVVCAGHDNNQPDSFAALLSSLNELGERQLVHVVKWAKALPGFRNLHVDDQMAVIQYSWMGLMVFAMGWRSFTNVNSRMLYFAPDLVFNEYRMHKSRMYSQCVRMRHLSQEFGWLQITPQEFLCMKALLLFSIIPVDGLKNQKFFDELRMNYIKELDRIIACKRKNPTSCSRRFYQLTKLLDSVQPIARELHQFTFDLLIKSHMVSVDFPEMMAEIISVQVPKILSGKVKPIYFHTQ
Procedure: (§1) A stable pooled-population cell line was generated using puromycin (Life Technologies) selection at 1:10,000 v/v. The protocol below was used for both cell lines and for testing of the compounds of Formula (I) of the present invention.
(§2) LNCaP cells were grown to about 80% confluence, media removed and cells rinsed in Hank's balanced salt solution prior to separation from the plate with 0.05% Trypsin EDTA. Cells were lifted and trypsin negated in complete CSS (charcoal stripped serum) culture media. […] Agonist challenge was at 400 pM for WT assay and 600 pM for F876L assay. Plates containing cells and compounds herein were incubated for a further 20-24 hours at 37° C., 5% CO2 before addition of 40 μL/well of Steady-Glo Luciferase Assay System Reagent (Promega# E2520). After 1 h, plates were read for luminescence on a BMG Pherastar.
(§3) EC/IC50 calculations were achieved utilizing calculated RLU data and data fitting macros. Data were fit using least-squares methods to the following formula: […]

[2] = target: T2, F876L mutant Androgen Receptor (AR-F876L) (Homo sapiens, UniProt P10275, F877L); assay: LNCaP-AR-F876L AG reporter assay (ARE firefly luciferase, agonist mode); details: for Emax: read-out: LNCaP-AR-F876L AG MAX % Stim
T2 construct: expressed in transfected cells; host or cells: LNCaP (LNCaP F876L)
T2 sequence (P10275 1-920 F877L): T1 sequence (P10275 1-920) with F877L
Procedure: as §1, §2, §3

[3] = target: T1, wild-type Androgen Receptor (AR-wt); assay: LNCaP-AR-wt AG reporter assay (ARE firefly luciferase, agonist mode); details: for Emax: read-out: LNCaP-AR-wt AG MAX % Stim
Procedure: as §1, §2, §3

[4] = target: T2, F876L mutant Androgen Receptor (AR-F876L); assay: LNCaP-AR-F876L ANT reporter assay (ARE firefly luciferase, antagonist mode); details: for Emax: read-out: LNCaP-AR-F876L ANT MAX % Inh
Procedure: as §1, §2, §3

[5] = read-out: LNCaP-AR-F876L ANT pIC50 (converted)
[6] = maximum % inhibition of R1881 control response over tested concentration range
[7] = agonist mode, −Log10(EC50 [Molar]), read-out: LNCaP-AR-F876L AG pEC50 (converted)
[8] = maximum % stimulation (agonist response) over tested concentration range
[9] = agonist mode, −Log10(EC50 [Molar]), read-out: LNCaP-AR-wt AG pEC50 (converted)

| SMILES | IC50 [1] | IC50 [4, 5] | Emax [1, 6] | EC50 [2, 7] | Emax [2, 8] | EC50 [3, 9] | Emax [3, 8] | Emax [4, 6] | Emax [1] | EC50 [2] | Emax [2] | EC50 [3] | Emax [3] | Emax [4] | IC50 [4] |
| --- | --- | --- | --- | --- | --- | --- | --- | --- | --- | --- | --- | --- | --- | --- | --- |
| CN1CCC(Oc2ccc(N3C(=S)N(c4cnc(C#N)c(C(F)(F)F)c4)C(=O)C3(C)C)cc2)CC1 [Cpd 19, 5-[4,4-dimethyl-3-[4-[(1-methyl-4-piperidyl)oxy]phenyl]-5-oxo-2-thioxo-imidazolidin-1-yl]-3-(trifluoromethyl)pyridine-2-carbonitrile] | 871 nM | 525 nM |  |  |  |  |  |  | 99.6% | > 15100 nM | 0.2% | > 15100 nM | 0.3% | 98.1% |  |
| Cc1ccc(CNC(=O)c2ccc(N3C(=S)N(c4cnc(C#N)c(C(F)(F)F)c4)C(=O)C34CCC4)cc2F)o1 [Cpd 26, 4-[6-[6-cyano-5-(trifluoromethyl)-3-pyridyl]-5-oxo-7-thioxo-6,8-diazaspiro[3.4]octan-8-yl]-2-fluoro-N-[(5-methyl-2-furyl)methyl]benzamide] | 813 nM | 891 nM | 97.9% | > 15100 nM | 0.3% | > 15100 nM | 1.1% | 97.9% |  |  |  |  |  |  |  |
| CC(C)CCNC(=O)c1ccc(N2C(=S)N(c3cnc(C#N)c(C(F)(F)F)c3)C(=O)C23CCC3)cc1F [Cpd 27, 4-[6-[6-cyano-5-(trifluoromethyl)-3-pyridyl]-5-oxo-7-thioxo-6,8-diazaspiro[3.4]octan-8-yl]-2-fluoro-N-isopentyl-benzamide] | 912 nM | 631 nM |  |  |  |  |  |  | 96.8% | > 15100 nM | 0.2% | > 15100 nM | 0.4% | 98.8% |  |
| Cc1cc(N2C(=O)C3(CCC3)N(c3ccc(C(=O)Nc4ccc(Cl)cc4)c(F)c3)C2=S)cnc1C#N [Cpd 74, N-(4-chlorophenyl)-4-[6-(6-cyano-5-methyl-3-pyridyl)-5-oxo-7-thioxo-6,8-diazaspiro[3.4]octan-8-yl]-2-fluoro-benzamide] | 1150 nM | 759 nM | 94.1% | > 15100 nM | 1% | > 15100 nM | 0.6% | 93.8% |  |  |  |  |  |  |  |
| CNC(=O)c1ccc(N2C(=S)N(c3cnc(C#N)c(C)c3)C(=O)C23CCC3)cc1C [Cpd 5, 4-[6-(6-cyano-5-methyl-3-pyridyl)-5-oxo-7-thioxo-6,8-diazaspiro[3.4]octan-8-yl]-N,2-dimethyl-benzamide] | 977 nM | 417 nM | 101% | > 15100 nM | -0.1% | > 15100 nM | 0.7% | 98.3% |  |  |  |  |  |  |  |
| N#Cc1ccc(N2C(=S)N(c3cnc(C#N)c(C(F)(F)F)c3)C(=O)C23CCC3)cc1 [Cpd 120, 5-[8-(4-cyanophenyl)-5-oxo-7-thioxo-6,8-diazaspiro[3.4]octan-6-yl]-3-(trifluoromethyl)pyridine-2-carbonitrile] | 363 nM | 224 nM | 100% | > 15100 nM | 3.9% | > 15100 nM | 1.2% | 98.8% |  |  |  |  |  |  |  |
| Cc1cc(N2C(=O)C3(CCC3)N(c3ccc(Oc4ccncn4)cc3)C2=S)cnc1C#N [Cpd 62, 3-methyl-5-[5-oxo-8-(4-pyrimidin-4-yloxyphenyl)-7-thioxo-6,8-diazaspiro[3.4]octan-6-yl]pyridine-2-carbonitrile] | 339 nM |  |  |  |  |  |  |  | 98.8% | > 15100 nM | 0.4% | > 15100 nM | 0.8% | 99.7% | 91.2 nM |

Now from value to compound, other results behind:

| IC50 [1] | IC50 [4, 5] | Emax [1, 6] | EC50 [2, 7] | Emax [2, 8] | EC50 [3, 9] | Emax [3, 8] | Emax [4, 6] | SMILES | Emax [1] | EC50 [2] | Emax [2] | EC50 [3] | Emax [3] | Emax [4] | IC50 [4] |
| --- | --- | --- | --- | --- | --- | --- | --- | --- | --- | --- | --- | --- | --- | --- | --- |
| 389 nM | 100 nM | 102% | > 15100 nM |  | > 15100 nM |  | 101% | Cc1ccc(N2C(=S)N(c3cnc(C#N)c(C)c3)C(=O)C23CCC3)cc1 [Cpd 29, 3-methyl-5-[5-oxo-8-(p-tolyl)-7-thioxo-6,8-diazaspiro[3.4]octan-6-yl]pyridine-2-carbonitrile] |  |  | 0.3% |  | 0.7% |  |  |
| 741 nM | 468 nM | 101% | > 15100 nM | 0.4% | > 15100 nM | 0.4% | 102% | N#Cc1ncc(N2C(=O)C3(CCC3)N(c3ccc(C(=O)N4CCCC4)c(F)c3)C2=S)cc1C(F)(F)F [Cpd 52, 5-[8-[3-fluoro-4-(pyrrolidine-1-carbonyl)phenyl]-5-oxo-7-thioxo-6,8-diazaspiro[3.4]octan-6-yl]-3-(trifluoromethyl)pyridine-2-carbonitrile] |  |  |  |  |  |  |  |
| 372 nM | 437 nM | 100% | > 15100 nM | 3.4% | > 15100 nM | 1.1% | 96.1% | Cc1ccc(N2C(=S)N(c3cnc(C#N)c(C(F)(F)F)c3)C(=O)C23CCC3)cc1F [Cpd 115, 5-[8-(3-fluoro-4-methyl-phenyl)-5-oxo-7-thioxo-6,8-diazaspiro[3.4]octan-6-yl]-3-(trifluoromethyl)pyridine-2-carbonitrile] |  |  |  |  |  |  |  |
| 617 nM | 398 nM | 96.3% | > 15100 nM | 0.5% | > 15100 nM | 1.1% | 99.2% | Cc1cc(N2C(=O)C3(CCC3)N(c3ccc(O)cc3)C2=S)cnc1C#N [Cpd 48, 5-[8-(4-hydroxyphenyl)-5-oxo-7-thioxo-6,8-diazaspiro[3.4]octan-6-yl]-3-methyl-pyridine-2-carbonitrile] |  |  |  |  |  |  |  |
